In US9040534B2, “[1,2,4]triazolo[4,3-a]pyrazines as P2X7 modulators” (Janssen Pharmaceutica NV, priority 2013, dated 2015):

Assays:
P2X7 [1] = target: T1, P2X7 (Homo sapiens (Human), UniProt Q99572); assay: Radioligand binding, human P2X7-1321N1 cell membranes, tritiated A-804598 tracer; conditions: 1 hour at 4° C.
Method: (B) Radioligand binding: human or rat P2X7-1321N1 cells were collected and frozen @ −80° C. On the day of the experiment, cell membrane preparations were made according to standard published methods. […] The compound can be prepared as described in the literature. […] The assay was terminated by filtration (GF/B filters pre-soaked with 0.3% PEI) and washed with washing buffer (Tris-HCl 50 mM). The IC50 generated in the binding assay was corrected for tracer concentration and affinity of the tracer to derive at the affinity (Ki) of the test compounds.

P2X7 [2] = target: T1, P2X7; assay: Ca2+ flux (FLIPR) in 1321N1 cells expressing recombinant human P2X7 channel; type: cell-based; conditions: 250 μM BzATP
Method: (§1) (A) Ca^2+ Flux: 1321N1 cells expressing the recombinant human, rat or mouse P2X7 channel was cultured in HyQ DME/(HyClone/Dulbecco's Modified Eagle Medium) high glucose supplemented with 10% Fetal Bovine Serum (FBS) and appropriate selection marker. Cells were seeded at a density of 25000 cells/well (96-well clear bottom black walled plates) in 100 μl volume/well. On the day of the experiment, cell plates were washed with assay buffer, containing (in mM): 130 NaCl, 2 KCl, 1 CaCl2, 1 MgCl2, 10 HEPES, 5 glucose; pH 7.40 and 300 mOs. After the wash, cells were loaded with the Calcium-4 dye (Molecular Device) and incubated in the dark for 60 minutes. Test compounds were prepared at 250× the test concentration in neat DMSO. Intermediate 96-well compound plates were prepared by transferring 1.2 μL of the compound into 300 μL of assay buffer. A further 3× dilution occurred when transferring 50 μL/well of the compound plate to 100 μL/well in the cell plate. Cells were incubated with test compounds and dye for 30 minutes. […] The fluorescence change was measured 180 seconds after adding the agonist.

rat P2X7 = rat P2X7 (Rattus norvegicus (Rat), UniProt Q64663); assay: Ca2+ flux (FLIPR) in 1321N1 cells expressing recombinant rat P2X7 channel; type: cell-based; conditions: 250 μM BzATP
Method: as §1

Chain of rat P2X7 (Q64663 whole entry): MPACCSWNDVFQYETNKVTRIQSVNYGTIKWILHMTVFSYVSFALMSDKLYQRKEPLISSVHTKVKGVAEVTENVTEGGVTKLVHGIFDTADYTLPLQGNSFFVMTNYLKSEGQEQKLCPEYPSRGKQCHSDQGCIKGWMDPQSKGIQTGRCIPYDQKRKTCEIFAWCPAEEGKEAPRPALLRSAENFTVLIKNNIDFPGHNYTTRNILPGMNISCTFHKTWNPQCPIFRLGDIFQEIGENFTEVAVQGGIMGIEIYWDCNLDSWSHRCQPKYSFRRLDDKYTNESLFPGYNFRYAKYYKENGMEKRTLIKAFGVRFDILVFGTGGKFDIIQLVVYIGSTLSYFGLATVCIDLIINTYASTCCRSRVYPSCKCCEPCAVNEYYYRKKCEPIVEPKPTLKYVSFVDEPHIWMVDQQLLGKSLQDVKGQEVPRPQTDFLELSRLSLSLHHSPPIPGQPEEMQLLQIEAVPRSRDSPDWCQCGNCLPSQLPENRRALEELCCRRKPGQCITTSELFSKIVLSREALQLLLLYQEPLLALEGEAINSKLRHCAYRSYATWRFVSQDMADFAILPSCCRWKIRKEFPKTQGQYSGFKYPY
T1 sequence (Q99572 whole entry): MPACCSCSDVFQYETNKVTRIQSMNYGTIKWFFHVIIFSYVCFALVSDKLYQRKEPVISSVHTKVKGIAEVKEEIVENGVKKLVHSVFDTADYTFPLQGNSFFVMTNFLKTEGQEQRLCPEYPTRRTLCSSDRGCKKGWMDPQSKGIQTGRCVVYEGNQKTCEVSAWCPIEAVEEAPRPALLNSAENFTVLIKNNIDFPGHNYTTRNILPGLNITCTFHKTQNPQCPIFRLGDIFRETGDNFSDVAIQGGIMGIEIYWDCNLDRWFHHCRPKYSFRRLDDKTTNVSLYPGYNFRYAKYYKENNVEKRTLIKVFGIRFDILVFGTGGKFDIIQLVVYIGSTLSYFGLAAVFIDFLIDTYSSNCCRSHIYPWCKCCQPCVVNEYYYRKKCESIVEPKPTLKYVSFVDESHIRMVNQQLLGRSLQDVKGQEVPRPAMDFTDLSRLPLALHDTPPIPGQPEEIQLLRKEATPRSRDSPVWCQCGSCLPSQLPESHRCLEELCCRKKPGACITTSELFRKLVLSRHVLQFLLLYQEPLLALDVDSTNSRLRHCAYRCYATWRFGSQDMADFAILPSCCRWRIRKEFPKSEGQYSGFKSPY

Compound: C[C@H]1Cn2c(nnc2-c2cnccn2)C(=O)N1Cc1cccc(C(F)(F)F)c1 [Example 88, (6S)-6-Methyl-3-pyrazin-2-yl-7-[3-(trifluoromethyl)benzyl]-6,7-dihydro[1,2,4]triazolo[4,3-a]pyrazin-8(5H)-one]
- Ki (P2X7 [1]): 0.005 µM
- IC50 (P2X7 [2]): 0.004 µM
- IC50 (rat P2X7): 6.04 µM

Compound: C[C@H]1Cn2c(nnc2C2CCCNC2)C(=O)N1Cc1cccc(C(F)(F)F)c1Cl (stereo partly drawn) [Example 60, (6S)-7-[2-Chloro-3-(trifluoromethyl)benzyl]-6-methyl-3-piperidin-3-yl-6,7-dihydro[1,2,4]triazolo[4,3-a]pyrazin-8(5H)-one]
- Ki (P2X7 [1]): 0.631 µM
- IC50 (P2X7 [2]): > 10 µM
- IC50 (rat P2X7): > 10 µM

Compound: C[C@H]1Cn2c(nnc2-c2cnccn2)C(=O)N1Cc1c(Cl)cccc1Cl [Example 86, (6S)-7-(2,6-Dichlorobenzyl)-6-methyl-3-pyrazin-2-yl-6,7-dihydro[1,2,4]triazolo[4,3-a]pyrazin-8(5H)-one]
- IC50 (rat P2X7): 1.37 µM

Compound: C[C@H]1Cn2c(nnc2-c2cnccn2)C(=O)N1Cc1ccccc1Cl [Example 80, (6S)-7-(2-Chlorobenzyl)-6-methyl-3-pyrazin-2-yl-6,7-dihydro[1,2,4]triazolo[4,3-a]pyrazin-8(5H)-one]
- IC50 (rat P2X7): 41.4 µM

Compound: Cc1cccc(-c2nnc3n2C[C@H](C)N(Cc2cccc(C(F)(F)F)c2Cl)C3=O)n1 [Example 46, (6S)-7-[2-Chloro-3-(trifluoromethyl)benzyl]-6-methyl-3-(6-methylpyridin-2-yl)-6,7-dihydro[1,2,4]triazolo[4,3-a]pyrazin-8(5H)-one]
- Ki (P2X7 [1]): 0.0126 µM
- IC50 (P2X7 [2]): 0.0033 µM
- IC50 (rat P2X7): 0.154 µM

Compound: C[C@H]1Cn2c(nnc2C2CCOCC2)C(=O)N1Cc1cccc(C(F)(F)F)c1Cl [Example 53, (6S)-7-[2-Chloro-3-(trifluoromethyl)benzyl]-6-methyl-3-(tetrahydro-2H-pyran-4-yl)-6,7-dihydro[1,2,4]triazolo[4,3-a]pyrazin-8(5H)-one]
- IC50 (rat P2X7): > 10 µM

Compound: CC(c1cccc(C(F)(F)F)c1Cl)N1CCn2c(nnc2-c2cnccn2)C1=O (racemic) [Example 4, (±)7-{1-[2-Chloro-3-(trifluoromethyl)phenyl]ethyl}-3-pyrazin-2-yl-6,7-dihydro[1,2,4]triazolo[4,3-a]pyrazin-8(5H)-one]
- IC50 (P2X7 [2]): 2.69 µM
- IC50 (rat P2X7): > 10 µM

Compound: C[C@H]1Cn2c(nnc2-c2cnccn2)C(=O)N1Cc1ccccc1OC(F)(F)F [Example 83, (6S)-6-Methyl-3-pyrazin-2-yl-7-[2-(trifluoromethoxy)benzyl]-6,7-dihydro[1,2,4]triazolo[4,3-a]pyrazin-8(5H)-one]
- IC50 (P2X7 [2]): 0.822 µM
- IC50 (rat P2X7): 11.1 µM

Compound: C[C@H]1Cn2c(nnc2-c2cnccn2)C(=O)N1Cc1cc([N+](=O)[O-])ccc1Cl [Example 90, (6S)-7-(2-Chloro-5-nitrobenzyl)-6-methyl-3-pyrazin-2-yl-6,7-dihydro[1,2,4]triazolo[4,3-a]pyrazin-8(5H)-one]
- IC50 (P2X7 [2]): 1 µM
- IC50 (rat P2X7): 20 µM

Compound: Cc1ncccc1-c1nnc2n1C[C@H](C)N(Cc1cccc(C(F)(F)F)c1Cl)C2=O [Example 48, (6S)-7-[2-Chloro-3-(trifluoromethyl)benzyl]-6-methyl-3-(2-methylpyridin-3-yl)-6,7-dihydro[1,2,4]triazolo[4,3-a]pyrazin-8(5H)-one]
- Ki (P2X7 [1]): 0.0126 µM
- IC50 (P2X7 [2]): 0.0132 µM
- IC50 (rat P2X7): 0.543 µM

Compound: CC[C@H]1Cn2c(nnc2-c2cnccn2)C(=O)N1Cc1cccc(C(F)(F)F)c1Cl [Example 71, (6S)-7-[2-Chloro-3-(trifluoromethyl)benzyl]-6-ethyl-3-pyrazin-2-yl-6,7-dihydro[1,2,4]triazolo[4,3-a]pyrazin-8(5H)-one]
- Ki (P2X7 [1]): 0.0013 µM
- IC50 (P2X7 [2]): 0.0003 µM
- IC50 (rat P2X7): 0.0103 µM

Compound: C[C@H]1Cn2c(nnc2-c2ncc(F)cn2)C(=O)N1Cc1cccc(C(F)(F)F)c1Cl [Example 34, (6S)-7-[2-Chloro-3-(trifluoromethyl)benzyl]-3-(5-fluoropyrimidin-2-yl)-6-methyl-6,7-dihydro[1,2,4]triazolo[4,3-a]pyrazin-8(5H)-one]
- IC50 (P2X7 [2]): 0.001 µM

Compound: C[C@H]1Cn2c(nnc2-c2cn[nH]c2)C(=O)N1Cc1cccc(C(F)(F)F)c1Cl [Example 25, (6S)-7-[2-Chloro-3-(trifluoromethyl)benzyl]-6-methyl-3-(1H-pyrazol-4-yl)-6,7-dihydro[1,2,4]triazolo[4,3-a]pyrazin-8(5H)-one]
- Ki (P2X7 [1]): 0.0251 µM
- IC50 (P2X7 [2]): 0.0966 µM
- IC50 (rat P2X7): 3.15 µM

Compound: COc1ccnc(-c2nnc3n2C[C@H](C)N(Cc2cccc(C(F)(F)F)c2Cl)C3=O)c1 [Example 35, (6S)-7-[2-Chloro-3-(trifluoromethyl)benzyl]-3-(4-methoxypyridin-2-yl)-6-methyl-6,7-dihydro[1,2,4]triazolo[4,3-a]pyrazin-8(5H)-one]
- Ki (P2X7 [1]): 0.002 µM
- IC50 (P2X7 [2]): 0.0007 µM
- IC50 (rat P2X7): 0.0106 µM

Compound: C[C@H]1Cn2c(nnc2-c2cnccn2)C(=O)N1Cc1ccccc1 [Example 79, (6S)-7-Benzyl-6-methyl-3-pyrazin-2-yl-6,7-dihydro[1,2,4]triazolo[4,3-a]pyrazin-8(5H)-one]
- IC50 (rat P2X7): > 10 µM

Compound: O=C1c2nnc(-c3ccc(F)cc3)n2CCN1Cc1cccc(C(F)(F)F)c1Cl [Example 1, 7-[2-Chloro-3-(trifluoromethyl)benzyl]-3-(4-fluorophenyl)-6,7-dihydro[1,2,4]triazolo[4,3-a]pyrazin-8(5H)-one]
- Ki (P2X7 [1]): 0.0631 µM
- IC50 (P2X7 [2]): 0.148 µM
- IC50 (rat P2X7): 28.4 µM

Compound: C[C@H]1Cn2c(nnc2-c2csc(C(F)(F)F)n2)C(=O)N1Cc1cccc(C(F)(F)F)c1Cl [Example 38, (6S)-7-[2-Chloro-3-(trifluoromethyl)benzyl]-6-methyl-3-[2-(trifluoromethyl)-1,3-thiazol-4-yl]-6,7-dihydro[1,2,4]triazolo[4,3-a]pyrazin-8(5H)-one]
- IC50 (P2X7 [2]): 0.977 µM
- IC50 (rat P2X7): 2.61 µM

Compound: C[C@H]1Cn2c(nnc2-c2cnccn2)C(=O)N1Cc1cc2c(cc1Cl)OCO2 [Example 84, (6S)-7-[(6-Chloro-1,3-benzodioxol-5-yl)methyl]-6-methyl-3-pyrazin-2-yl-6,7-dihydro[1,2,4]triazolo[4,3-a]pyrazin-8(5H)-one]
- IC50 (P2X7 [2]): 0.34 µM
- IC50 (rat P2X7): > 10 µM

Compound: O=C1c2nnc(-c3cnccn3)n2CCN1Cc1cccc(F)c1F [Example 6, 7-(2,3-Difluorobenzyl)-3-pyrazin-2-yl-6,7-dihydro[1,2,4]triazolo[4,3-a]pyrazin-8(5H)-one]
- IC50 (rat P2X7): > 10 µM

Compound: C[C@H]1Cn2c(nnc2C2CCCCC2)C(=O)N1Cc1cccc(C(F)(F)F)c1Cl [Example 51, (6S)-7-[2-Chloro-3-(trifluoromethyl)benzyl]-3-cyclohexyl-6-methyl-6,7-dihydro[1,2,4]triazolo[4,3-a]pyrazin-8(5H)-one]
- IC50 (P2X7 [2]): 0.766 µM
- IC50 (rat P2X7): > 10 µM

Compound: C[C@H]1Cn2c(nnc2C2CCC2)C(=O)N1Cc1cccc(C(F)(F)F)c1Cl [Example 49, (6S)-7-[2-Chloro-3-(trifluoromethyl)benzyl]-3-cyclobutyl-6-methyl-6,7-dihydro[1,2,4]triazolo[4,3-a]pyrazin-8(5H)-one]
- IC50 (P2X7 [2]): 0.386 µM
- IC50 (rat P2X7): 13.2 µM

Compound: C[C@H]1Cn2c(nnc2-c2cnccn2)C(=O)N1Cc1ccccc1[N+](=O)[O-] [Example 89, (6S)-6-Methyl-7-(2-nitrobenzyl)-3-pyrazin-2-yl-6,7-dihydro[1,2,4]triazolo[4,3-a]pyrazin-8(5H)-one]
- IC50 (P2X7 [2]): 0.0264 µM
- IC50 (rat P2X7): 7.28 µM

Compound: C[C@H]1Cn2c(nnc2C2CC2)C(=O)N1Cc1cccc(C(F)(F)F)c1Cl [Example 50, (6S)-7-[2-Chloro-3-(trifluoromethyl)benzyl]-3-cyclopropyl-6-methyl-6,7-dihydro[1,2,4]triazolo[4,3-a]pyrazin-8(5H)-one]
- IC50 (P2X7 [2]): 0.371 µM
- IC50 (rat P2X7): > 10 µM

Compound: C[C@H]1Cn2c(nnc2-c2cnccn2)C(=O)N1Cc1cc(N)ccc1Cl [Example 91, (6S)-7-(5-Amino-2-chlorobenzyl)-6-methyl-3-pyrazin-2-yl-6,7-dihydro[1,2,4]triazolo[4,3-a]pyrazin-8(5H)-one]
- IC50 (P2X7 [2]): 1.22 µM
- IC50 (rat P2X7): 18.9 µM

Compound: O=C1c2nnc(-c3cnccn3)n2CCN1Cc1c(Cl)cccc1Cl [Example 5, 7-(2,6-Dichlorobenzyl)-3-pyrazin-2-yl-6,7-dihydro[1,2,4]triazolo[4,3-a]pyrazin-8(5H)-one]
- IC50 (P2X7 [2]): 0.942 µM
- IC50 (rat P2X7): 2.56 µM

Compound: CS(=O)(=O)c1cc(Cl)ccc1CN1CCn2c(nnc2-c2cnccn2)C1=O [Example 7, 7-[4-Chloro-2-(methylsulfonyl)benzyl]-3-pyrazin-2-yl-6,7-dihydro[1,2,4]triazolo[4,3-a]pyrazin-8(5H)-one]
- IC50 (P2X7 [2]): 3.4 µM
- IC50 (rat P2X7): > 10 µM

Compound: C[C@H]1Cn2c(nnc2-c2cccnn2)C(=O)N1Cc1cccc(C(F)(F)F)c1Cl [Example 44, (6S)-7-[2-Chloro-3-(trifluoromethyl)benzyl]-6-methyl-3-pyridazin-3-yl-6,7-dihydro[1,2,4]triazolo[4,3-a]pyrazin-8(5H)-one]
- IC50 (P2X7 [2]): 0.177 µM
- IC50 (rat P2X7): 19.9 µM
